As a reminder, the Km is the concentration of substrate that gives half-maximal velocity.

The values that follow come from patent publication US8518989B2, “Prodrugs of short-chain fatty acids and treatment methods” (Georgia Health Sciences University Research Institute, Inc., priority 2005, dated 2013).

For assay [1], the system named is all three isoforms of NOS. As to conditions: read-out: Km for arginine; cited from earlier work.
Assay [2] concerns MCF7 cells transfected with SMCT1 cDNA. As to the kind of experiment: Colony formation assay in MCF7 cells transfected with SMCT1 cDNA. The format is cell-based, human. Conditions: SMCT1-expressing MCF7 cells.
In a further assay the test system is HDAC. As to the kind of experiment: HDAC activity in a cell-free system with MCF7 cell lysate. The format is biochemical, human. The method, then:
Measurement of HDAC activity in a cell-free system: This was done using a commercially available assay kit (BioVision). MCF7 cell lysate was used as a source of HDAC activity. 50 μg of lysate protein was incubated with various monocarboxylates (1 mM), or trichostatin A (20 μM), and the reaction was initiated by the addition of HDAC substrate. The reaction was then terminated and the deacetylated product was measured according to the manufacturer's instructions. The activity is expressed in nmoles of deacetylated product formed per μg of MCF7 cell lysate protein per 30 min.

For assay [3], the system named is SMCT1 and C/EBPδ expression. The experiment in a line: Induction of SMCT1 and C/EBPδ expression in MCF7 cells (RT-PCR). The format is cell-based, human. Conditions: NaB 5 mM, TSA 1 μM, MAA 5 mM, VPA 2 mM, 18 or 24 h. The method, then:
RT-PCR: Two μg of RNA was reverse transcribed using the Gene Amp PCR system (Roche) according to the manufacturer's instructions. Amplification of cDNA corresponding to mouse [NT] (sense) (SEQ ID NO:9), [NT] (anti-sense) (SEQ ID NO: 10)], mouse [NT] (sense) (SEQ ID NO:11), [NT] (anti-sense) (SEQ ID NO:12)], human [NT] (sense) (SEQ ID NO:13), [NT] (anti-sense) (SEQ ID NO:14)], and human C/EBPδ [[NT] (sense) (SEQ ID NO:15), [NT] (anti-sense) (SEQ ID NO:16)] was carried out using HPRT1 (hypoxanthine guanine phosphoribosyl transferase 1) as an internal control.

For a further assay, the system named is MCF7, T47D, and ZR75.1. The experiment in a line: Apoptosis in breast tumor cell lines (FACS, sub-G1). The format is cell-based, human. The method, then: (§1) Cell cycle analysis: Cells were fixed in 50% ethanol, treated with 0.1% sodium citrate, 1 mg/ml RNase A, and 50 μg/ml propidium iodide, and subjected to FACS (Becton Dickinson FacsCaliber) analysis. Cells with DNA content below Cl were scored as apoptotic population.

In a further assay the test system is HMEC, HBL100, and MCF10A. As to the kind of experiment: Apoptosis in non-transformed mammary epithelial cell lines (FACS, sub-G1). The format is cell-based, human. Conditions: normal mammary epithelial cells expressing SMCT1. The method, then:
as §1

For `N=C(N)NCCC[C@H](N)C(=O)O` [arginine], the Km in assay [1] is 3 to 30 µM.

Regarding `CC(O)C(=O)O` (stereo not shown) [lactate], the “Effect on cell growth / apoptosis” value in assay [2] is listed as “no effect on cell growth”. Also, in the assay on HDAC, the “HDAC inhibition (in words)” value is “does not”.

On to `COCC(=O)O` [methoxyacetate, methoxyacetic acid], for which the “Induction of SMCT1 and C/EBPδ expression” value in assay [3] was “no or little activity”. In addition, the Induction of apoptosis entry in the assay with MCF7, T47D, and ZR75.1 is “do not have any effect on apoptosis”.

As to `CC(/C=C/C(=O)NO)=C\[C@@H](C)C(=O)c1ccc(N(C)C)cc1` [trichostatin A], in assay [3], the “Induction of SMCT1 and C/EBPδ expression” value was “induce the expression of both genes”. Besides, the Induction of apoptosis result in the assay with HMEC, HBL100, and MCF10A was “does not induce apoptosis”; in the assay on MCF7, T47D, and ZR75.1, “cause apoptosis specifically in tumor cell lines”.

Take `CCCC(CCC)C(=O)O` [valproate, valproic acid]: the “Induction of SMCT1 and C/EBPδ expression” value in assay [3] was “no or little activity”. Further, the Induction of apoptosis result with MCF7, T47D, and ZR75.1 is on record as “do not have any effect on apoptosis”.
